From ChEMBL document CHEMBL5442219

How the values were obtained:
Settings in all cases: Compound concentration 10 µM
[1] = target: T1, Alpha-2A adrenergic receptor (Homo sapiens) (UniProt P08913)
T1 sequence (whole entry): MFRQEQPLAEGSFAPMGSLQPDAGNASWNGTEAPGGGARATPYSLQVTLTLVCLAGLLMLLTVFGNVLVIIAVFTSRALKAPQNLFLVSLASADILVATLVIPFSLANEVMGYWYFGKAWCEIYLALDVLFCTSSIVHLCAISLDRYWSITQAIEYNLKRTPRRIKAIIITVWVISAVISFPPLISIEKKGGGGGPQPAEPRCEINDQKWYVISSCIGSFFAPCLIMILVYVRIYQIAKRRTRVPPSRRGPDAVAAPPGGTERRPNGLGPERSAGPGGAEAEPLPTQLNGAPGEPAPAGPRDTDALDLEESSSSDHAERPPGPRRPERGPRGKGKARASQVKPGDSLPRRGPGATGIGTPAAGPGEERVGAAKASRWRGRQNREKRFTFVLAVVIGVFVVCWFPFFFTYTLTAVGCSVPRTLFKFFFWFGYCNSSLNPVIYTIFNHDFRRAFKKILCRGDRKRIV
Description: PDSP Primary Binding target: ADRA2A - Compounds are tested at 10 uM concentration, plate are incubated at room temperature in the dark for 90 minutes. Reaction are stopped by vacuum filtration onto 0.3% polyethyleneimine soaked filter mats using Filtermate harvester. Scintilation cocktail is then melted onto microwave-dried filters on a hot plate and the radio activity is counted in Microbia counter.

[2] = target: T2, Alpha-2B adrenergic receptor (Homo sapiens) (UniProt P18089)
T2 sequence (whole entry): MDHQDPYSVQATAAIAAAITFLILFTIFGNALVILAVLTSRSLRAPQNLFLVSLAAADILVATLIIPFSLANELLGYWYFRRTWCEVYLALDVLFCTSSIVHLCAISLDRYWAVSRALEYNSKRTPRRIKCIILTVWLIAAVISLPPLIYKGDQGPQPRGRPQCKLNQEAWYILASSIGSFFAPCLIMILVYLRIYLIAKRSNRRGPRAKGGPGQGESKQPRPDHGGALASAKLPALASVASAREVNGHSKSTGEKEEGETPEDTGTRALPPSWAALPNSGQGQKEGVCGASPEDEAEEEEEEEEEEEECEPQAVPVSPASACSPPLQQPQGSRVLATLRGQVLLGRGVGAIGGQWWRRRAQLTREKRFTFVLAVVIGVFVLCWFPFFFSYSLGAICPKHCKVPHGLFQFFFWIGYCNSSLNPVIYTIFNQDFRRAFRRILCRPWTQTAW
Description: PDSP Primary Binding target: ADRA2B - Compounds are tested at 10 uM concentration, plate are incubated at room temperature in the dark for 90 minutes. Reaction are stopped by vacuum filtration onto 0.3% polyethyleneimine soaked filter mats using Filtermate harvester. Scintilation cocktail is then melted onto microwave-dried filters on a hot plate and the radio activity is counted in Microbia counter.

[3] = target: T3, Alpha-2C adrenergic receptor (Homo sapiens) (UniProt P18825)
T3 sequence (whole entry): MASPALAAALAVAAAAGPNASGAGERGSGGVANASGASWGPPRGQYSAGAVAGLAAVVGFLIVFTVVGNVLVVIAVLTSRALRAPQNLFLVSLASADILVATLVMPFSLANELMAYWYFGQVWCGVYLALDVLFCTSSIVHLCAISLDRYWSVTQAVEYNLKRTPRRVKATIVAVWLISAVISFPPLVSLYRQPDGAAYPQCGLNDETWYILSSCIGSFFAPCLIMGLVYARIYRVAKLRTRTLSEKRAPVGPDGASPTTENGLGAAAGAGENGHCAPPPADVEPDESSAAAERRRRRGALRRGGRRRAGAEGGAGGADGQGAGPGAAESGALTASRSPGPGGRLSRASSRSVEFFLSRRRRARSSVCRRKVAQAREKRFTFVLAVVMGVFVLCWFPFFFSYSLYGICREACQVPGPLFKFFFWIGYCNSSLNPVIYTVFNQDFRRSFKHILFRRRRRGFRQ
Description: PDSP Primary Binding target: ADRA2C - Compounds are tested at 10 uM concentration, plate are incubated at room temperature in the dark for 90 minutes. Reaction are stopped by vacuum filtration onto 0.3% polyethyleneimine soaked filter mats using Filtermate harvester. Scintilation cocktail is then melted onto microwave-dried filters on a hot plate and the radio activity is counted in Microbia counter.

[4] = target: T4, Muscarinic acetylcholine receptor M5 (Homo sapiens) (UniProt P08912)
T4 sequence (whole entry): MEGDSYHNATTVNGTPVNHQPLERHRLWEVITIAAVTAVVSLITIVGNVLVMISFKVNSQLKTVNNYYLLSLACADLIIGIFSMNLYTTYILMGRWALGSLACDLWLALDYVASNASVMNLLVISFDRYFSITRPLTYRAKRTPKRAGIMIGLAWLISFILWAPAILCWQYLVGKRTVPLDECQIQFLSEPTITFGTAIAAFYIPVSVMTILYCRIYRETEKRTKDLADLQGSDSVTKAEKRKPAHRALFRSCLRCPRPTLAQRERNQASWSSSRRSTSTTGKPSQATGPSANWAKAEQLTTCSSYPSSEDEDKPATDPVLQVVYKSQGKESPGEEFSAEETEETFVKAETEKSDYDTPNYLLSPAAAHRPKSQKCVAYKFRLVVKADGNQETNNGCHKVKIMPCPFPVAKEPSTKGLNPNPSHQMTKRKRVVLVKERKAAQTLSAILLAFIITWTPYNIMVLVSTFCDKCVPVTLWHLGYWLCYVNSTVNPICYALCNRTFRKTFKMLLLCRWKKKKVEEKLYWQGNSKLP
Description: PDSP Primary Binding target: CHRM5 - Compounds are tested at 10 uM concentration, plate are incubated at room temperature in the dark for 90 minutes. Reaction are stopped by vacuum filtration onto 0.3% polyethyleneimine soaked filter mats using Filtermate harvester. Scintilation cocktail is then melted onto microwave-dried filters on a hot plate and the radio activity is counted in Microbia counter.

[5] = target: D(2) dopamine receptor (Homo sapiens) (UniProt P14416)
Description: PDSP Primary Binding target: DRD2 - Compounds are tested at 10 uM concentration, plate are incubated at room temperature in the dark for 90 minutes. Reaction are stopped by vacuum filtration onto 0.3% polyethyleneimine soaked filter mats using Filtermate harvester. Scintilation cocktail is then melted onto microwave-dried filters on a hot plate and the radio activity is counted in Microbia counter.

[6] = target: 5-hydroxytryptamine receptor 1B (Homo sapiens) (UniProt P28222)
Description: PDSP Primary Binding target: HTR1B - Compounds are tested at 10 uM concentration, plate are incubated at room temperature in the dark for 90 minutes. Reaction are stopped by vacuum filtration onto 0.3% polyethyleneimine soaked filter mats using Filtermate harvester. Scintilation cocktail is then melted onto microwave-dried filters on a hot plate and the radio activity is counted in Microbia counter.

[7] = target: 5-hydroxytryptamine receptor 1E (Homo sapiens) (UniProt P28566)
Description: PDSP Primary Binding target: HTR1E - Compounds are tested at 10 uM concentration, plate are incubated at room temperature in the dark for 90 minutes. Reaction are stopped by vacuum filtration onto 0.3% polyethyleneimine soaked filter mats using Filtermate harvester. Scintilation cocktail is then melted onto microwave-dried filters on a hot plate and the radio activity is counted in Microbia counter.

[8] = target: 5-hydroxytryptamine receptor 7 (Homo sapiens) (UniProt P34969)
Description: PDSP Primary Binding target: HTR7 - Compounds are tested at 10 uM concentration, plate are incubated at room temperature in the dark for 90 minutes. Reaction are stopped by vacuum filtration onto 0.3% polyethyleneimine soaked filter mats using Filtermate harvester. Scintilation cocktail is then melted onto microwave-dried filters on a hot plate and the radio activity is counted in Microbia counter.

[9] = target: Sigma non-opioid intracellular receptor 1 (Homo sapiens) (UniProt Q99720)
Description: PDSP Primary Binding target: SIGMAR1 - Compounds are tested at 10 uM concentration, plate are incubated at room temperature in the dark for 90 minutes. Reaction are stopped by vacuum filtration onto 0.3% polyethyleneimine soaked filter mats using Filtermate harvester. Scintilation cocktail is then melted onto microwave-dried filters on a hot plate and the radio activity is counted in Microbia counter.

[10] = target: Sodium-dependent noradrenaline transporter (Homo sapiens) (UniProt P23975)
Description: PDSP Primary Binding target: SLC6A2 - Compounds are tested at 10 uM concentration, plate are incubated at room temperature in the dark for 90 minutes. Reaction are stopped by vacuum filtration onto 0.3% polyethyleneimine soaked filter mats using Filtermate harvester. Scintilation cocktail is then melted onto microwave-dried filters on a hot plate and the radio activity is counted in Microbia counter.

[11] = target: T5, Alpha-1D adrenergic receptor (Homo sapiens) (UniProt P25100)
T5 sequence (whole entry): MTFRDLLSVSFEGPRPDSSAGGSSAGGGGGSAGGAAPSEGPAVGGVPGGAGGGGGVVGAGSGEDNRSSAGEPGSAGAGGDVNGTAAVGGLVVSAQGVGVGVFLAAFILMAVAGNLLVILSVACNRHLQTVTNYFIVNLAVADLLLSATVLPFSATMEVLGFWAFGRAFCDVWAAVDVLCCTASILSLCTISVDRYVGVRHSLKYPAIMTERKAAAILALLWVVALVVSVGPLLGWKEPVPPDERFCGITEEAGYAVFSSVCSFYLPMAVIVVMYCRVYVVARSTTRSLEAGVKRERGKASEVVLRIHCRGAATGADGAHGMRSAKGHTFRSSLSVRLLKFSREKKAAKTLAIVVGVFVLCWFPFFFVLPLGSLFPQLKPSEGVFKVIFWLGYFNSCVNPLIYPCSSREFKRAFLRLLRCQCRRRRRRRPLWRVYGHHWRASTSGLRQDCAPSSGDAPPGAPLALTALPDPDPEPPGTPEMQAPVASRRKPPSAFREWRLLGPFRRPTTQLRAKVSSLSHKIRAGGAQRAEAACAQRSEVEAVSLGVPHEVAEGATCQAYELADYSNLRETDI
Description: PDSP Primary Binding target: ADRA1D - Compounds are tested at 10 uM concentration, plate are incubated at room temperature in the dark for 90 minutes. Reaction are stopped by vacuum filtration onto 0.3% polyethyleneimine soaked filter mats using Filtermate harvester. Scintilation cocktail is then melted onto microwave-dried filters on a hot plate and the radio activity is counted in Microbia counter.

[12] = target: Beta-2 adrenergic receptor (Homo sapiens) (UniProt P07550)
Beta-2 adrenergic receptor (Homo sapiens), sequence (P07550 whole entry, looked up): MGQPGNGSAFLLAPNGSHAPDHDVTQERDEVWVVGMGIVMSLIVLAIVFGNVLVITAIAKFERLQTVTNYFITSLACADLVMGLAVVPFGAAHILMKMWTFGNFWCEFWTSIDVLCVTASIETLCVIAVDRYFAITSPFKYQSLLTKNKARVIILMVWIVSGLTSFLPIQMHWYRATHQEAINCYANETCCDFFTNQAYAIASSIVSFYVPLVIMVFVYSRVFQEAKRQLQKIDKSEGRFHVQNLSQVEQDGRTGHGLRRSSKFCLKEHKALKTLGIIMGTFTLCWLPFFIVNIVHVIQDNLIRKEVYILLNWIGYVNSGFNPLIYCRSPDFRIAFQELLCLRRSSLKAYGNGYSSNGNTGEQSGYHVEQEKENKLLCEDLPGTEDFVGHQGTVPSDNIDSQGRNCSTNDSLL
Description: PDSP Primary Binding target: ADRB2 - Compounds are tested at 10 uM concentration, plate are incubated at room temperature in the dark for 90 minutes. Reaction are stopped by vacuum filtration onto 0.3% polyethyleneimine soaked filter mats using Filtermate harvester. Scintilation cocktail is then melted onto microwave-dried filters on a hot plate and the radio activity is counted in Microbia counter.

Sigma non-opioid intracellular receptor 1 (Homo sapiens), sequence (Q99720 whole entry): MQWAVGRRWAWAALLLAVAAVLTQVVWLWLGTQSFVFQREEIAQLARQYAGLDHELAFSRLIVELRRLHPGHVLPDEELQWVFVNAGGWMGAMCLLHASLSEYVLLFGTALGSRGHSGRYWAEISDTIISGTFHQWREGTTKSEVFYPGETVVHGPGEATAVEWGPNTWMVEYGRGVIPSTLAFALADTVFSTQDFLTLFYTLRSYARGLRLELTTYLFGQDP
Sodium-dependent noradrenaline transporter (Homo sapiens), sequence (P23975 whole entry): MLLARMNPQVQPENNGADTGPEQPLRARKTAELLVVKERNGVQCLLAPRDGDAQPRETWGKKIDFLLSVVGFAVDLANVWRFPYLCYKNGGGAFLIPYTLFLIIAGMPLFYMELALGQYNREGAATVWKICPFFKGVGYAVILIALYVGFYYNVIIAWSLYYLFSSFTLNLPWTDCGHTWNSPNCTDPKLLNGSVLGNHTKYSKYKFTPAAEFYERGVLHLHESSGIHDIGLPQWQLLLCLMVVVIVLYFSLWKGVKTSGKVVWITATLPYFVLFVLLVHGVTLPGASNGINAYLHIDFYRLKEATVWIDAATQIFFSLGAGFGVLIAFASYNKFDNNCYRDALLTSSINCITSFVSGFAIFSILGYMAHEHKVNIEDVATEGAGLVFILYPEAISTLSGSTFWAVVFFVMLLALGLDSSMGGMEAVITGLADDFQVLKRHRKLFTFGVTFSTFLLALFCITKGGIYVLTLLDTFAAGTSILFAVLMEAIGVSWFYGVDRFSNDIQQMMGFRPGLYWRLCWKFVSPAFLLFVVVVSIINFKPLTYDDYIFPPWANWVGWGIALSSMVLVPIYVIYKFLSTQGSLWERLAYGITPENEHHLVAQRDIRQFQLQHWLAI
D(2) dopamine receptor (Homo sapiens), sequence (P14416 whole entry): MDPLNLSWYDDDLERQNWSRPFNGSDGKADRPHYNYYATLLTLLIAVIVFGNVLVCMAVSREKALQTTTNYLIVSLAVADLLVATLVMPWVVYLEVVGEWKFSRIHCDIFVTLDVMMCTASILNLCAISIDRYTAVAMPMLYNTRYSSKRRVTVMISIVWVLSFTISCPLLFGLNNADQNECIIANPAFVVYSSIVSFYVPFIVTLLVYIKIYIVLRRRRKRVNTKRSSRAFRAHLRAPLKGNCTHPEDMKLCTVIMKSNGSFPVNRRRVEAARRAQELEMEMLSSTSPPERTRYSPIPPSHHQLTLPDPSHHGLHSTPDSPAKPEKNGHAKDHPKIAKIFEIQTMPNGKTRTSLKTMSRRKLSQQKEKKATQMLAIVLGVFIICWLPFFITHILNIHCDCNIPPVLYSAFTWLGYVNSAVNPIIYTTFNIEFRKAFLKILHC
5-hydroxytryptamine receptor 1B (Homo sapiens), sequence (P28222 whole entry): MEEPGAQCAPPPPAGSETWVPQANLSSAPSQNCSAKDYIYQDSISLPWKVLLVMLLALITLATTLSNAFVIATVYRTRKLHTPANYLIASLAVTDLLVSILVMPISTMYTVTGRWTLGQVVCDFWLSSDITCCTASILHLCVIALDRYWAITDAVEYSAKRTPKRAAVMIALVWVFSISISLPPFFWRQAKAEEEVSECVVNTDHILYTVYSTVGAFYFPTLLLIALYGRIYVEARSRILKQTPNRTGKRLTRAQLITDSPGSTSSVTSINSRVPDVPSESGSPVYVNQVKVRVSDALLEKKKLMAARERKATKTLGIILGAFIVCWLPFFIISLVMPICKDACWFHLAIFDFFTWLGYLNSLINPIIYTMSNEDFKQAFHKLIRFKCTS
5-hydroxytryptamine receptor 1E (Homo sapiens), sequence (P28566 whole entry): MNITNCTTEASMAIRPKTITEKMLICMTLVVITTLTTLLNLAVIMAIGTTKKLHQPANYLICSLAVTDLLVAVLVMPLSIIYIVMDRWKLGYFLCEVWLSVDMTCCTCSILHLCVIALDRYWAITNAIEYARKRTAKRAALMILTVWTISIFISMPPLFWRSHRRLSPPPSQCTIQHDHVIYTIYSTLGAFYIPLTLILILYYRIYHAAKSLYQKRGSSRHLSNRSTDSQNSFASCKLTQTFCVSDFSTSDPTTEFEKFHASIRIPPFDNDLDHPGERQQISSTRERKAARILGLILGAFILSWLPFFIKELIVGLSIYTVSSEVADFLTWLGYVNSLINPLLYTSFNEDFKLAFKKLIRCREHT
5-hydroxytryptamine receptor 7 (Homo sapiens), sequence (P34969 whole entry): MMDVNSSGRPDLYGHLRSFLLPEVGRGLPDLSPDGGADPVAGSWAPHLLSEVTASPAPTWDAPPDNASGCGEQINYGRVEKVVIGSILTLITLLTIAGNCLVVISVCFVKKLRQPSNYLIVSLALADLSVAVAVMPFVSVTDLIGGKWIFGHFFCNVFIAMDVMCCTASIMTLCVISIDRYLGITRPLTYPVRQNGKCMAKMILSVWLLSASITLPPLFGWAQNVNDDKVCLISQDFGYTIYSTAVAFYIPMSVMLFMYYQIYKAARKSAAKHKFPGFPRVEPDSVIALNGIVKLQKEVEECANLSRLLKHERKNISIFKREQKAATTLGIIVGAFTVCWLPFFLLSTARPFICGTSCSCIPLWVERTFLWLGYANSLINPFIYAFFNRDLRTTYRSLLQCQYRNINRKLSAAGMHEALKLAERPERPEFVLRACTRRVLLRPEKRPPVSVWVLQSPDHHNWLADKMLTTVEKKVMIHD

SMILES	inhibition [1]	inhibition [2]	inhibition [3]	inhibition [4]	inhibition [5]	inhibition [6]	inhibition [7]	inhibition [8]	inhibition [9]	inhibition [10]	inhibition [11]	inhibition [12]
CCCCN(CCCC)C(=O)CN1C[C@@H](c2ccc3c(c2)OCO3)[C@H](C(=O)O)[C@H]1c1ccc(OC)cc1	0.09%	2.24%	-5.48%	30.2%	21.1%	-0.63%	-0.09%	-7.92%	59.9%	5.56%	–	–
CNC[C@H](O)c1cccc(O)c1	78.2%	21.3%	32.8%	-2.82%	-2.53%	15.9%	23.9%	75.5%	–	8.86%	26.6%	-1.97%
C[C@@H](NCCCc1cccc(C(F)(F)F)c1)c1cccc2ccccc12	27.9%	39.4%	77.9%	7.94%	25.8%	27.5%	18%	51.6%	–	60.8%	28.2%	9.84%
CN(C)C(=O)C(CCN1CCC(O)(c2ccc(Cl)cc2)CC1)(c1ccccc1)c1ccccc1	47.1%	–	39.4%	2.95%	16.2%	20.1%	18.4%	20.8%	87.2%	25.8%	38%	44.6%
Cc1ccccc1C(=O)Nc1ccc(C(=O)N2CCCC(O)c3cc(Cl)ccc32)c(C)c1 (stereo unspecified)	33.8%	17.5%	9.34%	4.97%	9.21%	14.4%	0.51%	8.44%	28.2%	20.8%	12.7%	–
CCCCc1nc(Cl)c(CO)n1Cc1ccc(-c2ccccc2-c2nnn[nH]2)cc1	6.2%	–	3.84%	0.95%	23.9%	-3.17%	7.06%	40%	9.91%	11.8%	13.1%	–
COc1cc(-n2cnc3cc(-c4ccc(Cl)cc4)sc3c2=O)ccc1OCCN1CCCC1	70.6%	47.6%	71.9%	64.9%	30.2%	42.5%	–	16.4%	98.9%	80.4%	53.1%	17.8%
CC(C)NCC(O)c1ccc(N)c(C#N)c1 (stereo unspecified)	-5.25%	–	-3.24%	-0.9%	1.95%	–	32.7%	20.1%	22.7%	4.01%	–	95.5%
CC(C)NCC(O)COc1cccc2ccccc12 (stereo unspecified)	16.4%	–	8.7%	6.07%	17.7%	9.59%	3.24%	13.3%	54.7%	46.2%	12.7%	–
OC1(c2ccc(Cl)cc2)CCN(Cc2c[nH]c3ccccc23)CC1	76.1%	83.8%	30.4%	70.8%	90.2%	19.3%	–	10.4%	2.38%	63.5%	21.4%	-1.99%
C[C@@H](N)Cc1c[nH]cn1	8.47%	9.47%	10.9%	-5.67%	-4.88%	5.1%	14.9%	3.45%	20.9%	-7.81%	–	10.2%
